Here are results for one compound from paper PMC3995882, “Antimicrobial and Immunomodulatory Activities of PR-39 Derived Peptides” (PLoS ONE, 2014).

In series [1] the test system is Bacillus Cereus ATCC 9193. Kind of series: Broth dilution assay (MIC). Type of series: cell-based. The settings on record: 50% MHB, turbidity, range of triplicate experiments. On the technique in general: Dilution methods test growth across graded concentrations, often in twofold steps.
The test system of series [2] is Bacillus Lichen ATCC 21424. The series can be described thus: Broth dilution assay (MIC). The series is classed as cell-based, Bacillus licheniformis. The settings on record: 50% MHB, turbidity, range of triplicate experiments.
For another series, the system named is E. coli. The series can be described thus: Colony counting assay (MBC). The series is classed as cell-based, Escherichia coli. To be noted: 3 h 37°C, 10 mM phosphate buffer pH 7.0 with 1/1000 TSB, MBC = <100 CFU/ml. The method, then:
(§1) Overnight cultures of E. coli and B. globigii were grown in TSB medium at 37°C to mid-logarithmic phase. The antimicrobial activity of the PR-39 derived peptides was tested using colony counting as described before. In short, cells were collected via centrifugation at 900×g for 10 minutes, and resuspended in 10 mM phosphate buffer, pH 7.0, containing 1/1000 TSB medium (Buffer A). Cells were further diluted to 2×10^6 CFU/ml in the same buffer. Next, 25 µl of cell suspension was mixed with an equal volume of different concentrations of peptides ranging from 0–80 µM, and incubated further for 3 hours at 37°C. Ten-fold dilutions were prepared in minimal buffer containing 1/1000 TSB medium in distilled water, and 100 µl from each dilution was spread on TSA plates (Trypton Soy Agar; Oxoid). The plates were incubated at 37°C and the number of colonies was counted 24 h later to determine the number of surviving bacteria. Minimal Bactericidal Concentration (MBC) was defined as <100 CFU/ml corresponding to the detection limit of this assay. To determine the dependence of activity of PR-39 on the energy status of the cell, E. coli was incubated 30 min at 37°C in the presence of the metabolic uncouplers 50 µM carbonyl cyanide m-chlorophenylhydrazone (CCCP), or 5 mM 2,4-dinitrophenol (DNP). Subsequently, an antimicrobial activity assay was performed as described above.

The subject of series [3] is Streptococcus Pyogenes (ATCC 19616). Kind of series: Broth dilution assay (MIC). The series is classed as cell-based. To be noted: 50% MHB, turbidity, range of triplicate experiments.
Series [4] has as its system serine proteases, elastase, and aminopeptidases. The settings on record: cited from earlier work. The source says:
Current literature on PR-39 has shifted from an initial focus on antibacterial activity to potential new roles in host defence mechanisms.

Another series relates to E.coli ATCC 4157. The series can be described thus: Broth dilution assay (MIC). The series is classed as cell-based, Escherichia coli. The settings on record: 50% MHB, turbidity, range of triplicate experiments.
Another series deals with Bacillus Globigii (TNO). The series is classed as cell-based. To be noted: broth dilution, 50% MHB, turbidity; range of triplicate experiments.
The test system of a further series is E.coli K88 403. To be noted: broth dilution, 50% MHB, turbidity; range of triplicate experiments. How it is done: Initial screening for antibacterial activity of PR-39 was performed using broth dilution assays. Bacteria were grown to mid-logarithmic phase in MHB medium. The optical density was measured and bacteria were diluted to 2×10^6 CFU/ml. Subsequently 25 µl bacteria were incubated with 25 µl peptide in polypropylene 96 wells plates and incubated at 37°C. After 3 h 200 µl MHD medium was added and samples were further incubated overnight. Minimal inhibitory concentrations (MIC) were determined by turbidity measurement of the wells.

Series [5] has as its system Bacillus Subtilis (ATCC6633). The series can be described thus: Broth dilution assay (MIC). Type of series: cell-based. To be noted: 50% MHB, turbidity, range of triplicate experiments.
The test system of series [6] is Enterococcus Faecalis (ATCC 29213). Kind of series: Broth dilution assay (MIC). The settings on record: 50% MHB, turbidity, range of triplicate experiments. Type of series: cell-based.
The test system of another series is E.coli K12. Kind of series: Broth dilution assay (MIC). Type of series: cell-based, Escherichia coli. To be noted: 50% MHB, turbidity, range of triplicate experiments.
The next series has as its system B. globigii. Type of series: cell-based, Bacillus globigii. To be noted: colony counting, 3 h 37°C, 10 mM phosphate buffer pH 7.0 with 1/1000 TSB, MBC = <100 CFU/ml. How it is done:
as §1

Series [7] concerns Enterococcus Faeceum E155. Type of series: cell-based. The settings on record: broth dilution, 50% MHB, turbidity; range of triplicate experiments.
The next series relates to E.coli ATCC25922. Kind of series: Broth dilution assay (MIC). Type of series: cell-based, Escherichia coli. To be noted: 50% MHB, turbidity, range of triplicate experiments.

Molecules are shown by their SMILES. ≈ marks a conversion by molar mass, not a printed value. Where a SMILES comes first, the peptide text is derived from it.

With `CC[C@H](C)[C@H](NC(=O)[C@H](CCCNC(=N)N)NC(=O)[C@@H]1CCCN1C(=O)[C@@H]1CCCN1C(=O)[C@H](CC(C)C)NC(=O)[C@H](CCCNC(=N)N)NC(=O)[C@@H]1CCCN1C(=O)[C@@H]1CCCN1C(=O)[C@H](Cc1ccccc1)NC(=O)[C@H](Cc1ccccc1)NC(=O)[C@@H]1CCCN1C(=O)[C@@H]1CCCN1C(=O)[C@@H]1CCCN1C(=O)[C@H](CCCNC(=N)N)NC(=O)[C@@H]1CCCN1C(=O)[C@H](CCCNC(=N)N)NC(=O)[C@@H]1CCCN1C(=O)[C@H](CC(C)C)NC(=O)[C@H](Cc1ccc(O)cc1)NC(=O)[C@@H]1CCCN1C(=O)[C@@H]1CCCN1C(=O)[C@H](CCCNC(=N)N)NC(=O)[C@@H]1CCCN1C(=O)[C@H](CCCNC(=N)N)NC(=O)[C@H](CCCNC(=N)N)NC(=O)[C@@H](N)CCCNC(=N)N)C(=O)N1CCC[C@H]1C(=O)N1CCC[C@H]1C(=O)NCC(=O)N[C@@H](Cc1ccccc1)C(=O)N1CCC[C@H]1C(=O)N1CCC[C@H]1C(=O)N[C@@H](CCCNC(=N)N)C(=O)N[C@@H](Cc1ccccc1)C(=O)N1CCC[C@H]1C(=O)N1CCC[C@H]1C(=O)N[C@@H](CCCNC(=N)N)C(=O)N[C@@H](Cc1ccccc1)C(=O)N1CCC[C@H]1C(=O)O` [PR-39] (H-RRRPRPPYLPRPRPPPFFPPRLPPRIPPGFPPRFPPRFP-OH), the MIC (usually the lowest concentration found to suppress growth) was 5 to 20 µM in [1]; 5 µM (≈ 23.6 µg/mL) in [2]; 2.5 to 5 µM in series [3]; 1.25 to 2.5 µM in the series with E.coli ATCC 4157; 1.25 to 5 µM against Bacillus Globigii (TNO); 1.25 to 2.5 µM against E.coli K88 403. The MIC is 2.5 to 5 µM in series [5]; 10 µM (≈ 47.2 µg/mL) in [6]; 1.25 to 2.5 µM against E.coli K12; 1.25 to 2.5 µM in series [7]; 2.5 to 10 µM against E.coli ATCC25922. For the same compound, the “MBC E. coli 0 mM NaCl” value against E. coli (2×10^6 CFU/ml, no NaCl added) was 1.25 µM (≈ 5.9 µg/mL). The “MBC E. coli 100 mM NaCl” value in the series with E. coli (100 mM NaCl added) was found to be 2.5 µM (≈ 11.8 µg/mL). The resistance to proteases entry in series [4] was “resistant to serine proteases, elastase, and aminopeptidases”. For the same compound, the “MBC B. globigii 0 mM NaCl” value against B. globigii (2×10^6 CFU/ml, no NaCl added) was 2.5 µM (≈ 11.8 µg/mL). The “MBC B. globigii +100 mM NaCl” value against B. globigii (100 mM NaCl added) was determined as 5 µM (≈ 23.6 µg/mL).
